Test results: US10183944B2 (Asana Biosciences, LLC, priority 2011, dated 2019)

Assays:
JAK2 = JAK2 (Homo sapiens (Human), UniProt O60674); experiment: Inhibition of enzymatic JAK2 kinase activity (TR-FRET); format: biochemical; details: read-out: IC50 JAK
Outline: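 Enzyme preincubated with compound 30 min at RT, then Ulight-poly-GT substrate and ATP added for 60 min at RT. EDTA stop, Eu-antiphosphotyrosine antibody; TR-FRET ratio 665/615 nm (ex 340 nm), blank-corrected; % inhibition versus positive control.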

[1] = target: Syk (356-635 amino acids) catalytic domain (Homo sapiens (Human), UniProt P43405); experiment: Inhibition of enzymatic Syk kinase activity (radiometric); format: biochemical; details: read-out: IC50 Syk
Outline: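 Human Syk (356-635) kinase domain (0.035–7.5 ng/reaction) preincubated with compound 30 minutes at room temperature, then reacted with pG4T substrate, 100 μM ATP (stock) and γ-32P-ATP for 10 minutes at 30° C. Reaction stopped with HCl/ATP, spotted on P81 paper, washed and counted by scintillation. Percent inhibition versus no-compound counts.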

JAK2, sequence (O60674 808-1132): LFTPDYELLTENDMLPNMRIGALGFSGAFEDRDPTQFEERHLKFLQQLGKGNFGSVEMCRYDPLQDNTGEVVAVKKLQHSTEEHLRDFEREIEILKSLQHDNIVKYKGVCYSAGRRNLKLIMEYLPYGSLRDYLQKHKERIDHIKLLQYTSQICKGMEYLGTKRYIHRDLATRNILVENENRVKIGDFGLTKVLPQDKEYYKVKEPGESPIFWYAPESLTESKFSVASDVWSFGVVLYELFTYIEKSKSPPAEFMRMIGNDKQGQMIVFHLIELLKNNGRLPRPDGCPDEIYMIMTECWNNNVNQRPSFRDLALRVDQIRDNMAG

Compound | IC50 (JAK2) | IC50 [1]
N#CCC1CCN(c2nc(Nc3ccc(N4CCCC(CC(=O)O)C4)cc3)c3c(=O)[nH]ncc3n2)CC1 (stereo not shown) [Example 250, 2-(1-(4-((2-(4-(cyanomethyl)piperidin-1-yl)-5-oxo-5,6-dihydropyrimido[4,5-d]pyridazin-4-yl)amino)phenyl)piperidin-3-yl)acetic acid] | < 10 nM | < 50 nM
O=c1[nH]ncc2nc(N3CCCCCC3)nc(Nc3ccc(N4CCC(Cc5nn[nH]n5)CC4)nc3)c12 [Example 252, 4-((6-(4-((2H-tetrazol-5-yl)methyl)piperidin-1-yl)pyridin-3-yl)amino)-2-(azepan-1-yl)pyrimido[4,5-d]pyridazin-5(6H)-one] | < 10 nM | < 50 nM
N#CCC1CCN(c2nc(Nc3ccc(N4CCC(Cc5nn[nH]n5)CC4)nc3)c3c(=O)[nH]ncc3n2)CC1 [Example 253, 2-(1-(4-((6-(4-((2H-tetrazol-5-yl)methyl)piperidin-1-yl)pyridin-3-yl)amino)-5-oxo-5,6-dihydropyrimido[4,5-d]pyridazin-2-yl)piperidin-4-yl) acetonitrile] | < 10 nM | < 50 nM
N#CCC1CCN(c2nc(Nc3ccc(OC4CCN(CC(=O)O)CC4)cc3)c3c(=O)[nH]ncc3n2)CC1 [Example 262, 2-(4-(4-((2-(4-(cyanomethyl)piperidin-1-yl)-5-oxo-5,6-dihydropyrimido[4,5-d]pyridazin-4-yl)amino)phenoxy)piperidin-1-yl)acetic acid] | < 10 nM | < 50 nM
CCN1CCN(C(=O)COc2ccc(Nc3nc(N4CCCCCC4)nc4cn[nH]c(=O)c34)cc2)CC1 [Example 269, 2-(azepan-1-yl)-4-((4-(2-(4-ethylpiperazin-1-yl)-2-oxoethoxy)phenyl)amino)pyrimido[4,5-d]pyridazin-5(6H)-one] | < 50 nM | < 50 nM
CCN1CCN(C(=O)COc2ccc(Nc3nc(N4CCC(CC#N)CC4)nc4cn[nH]c(=O)c34)cc2)CC1 [Example 270, 2-(1-(4-((4-(2-(4-ethylpiperazin-1-yl)-2-oxoethoxy)phenyl)amino)-5-oxo-5,6-dihydropyrimido[4,5-d]pyridazin-2-yl)piperidin-4-yl)acetonitrile] | < 50 nM | < 50 nM
CN1CCN(C(=O)COc2ccc(Nc3nc(N4CCC(CC#N)CC4)nc4cn[nH]c(=O)c34)cc2)CC1 [Example 271, 2-(1-(4-((4-(2-(4-methylpiperazin-1-yl)-2-oxoethoxy)phenyl)amino)-5-oxo-5,6-dihydropyrimido[4,5-d]pyridazin-2-yl)piperidin-4-yl)acetonitrile] | < 50 nM | < 10 nM
N#CCC1CCN(c2nc(Nc3ccc(N4CCCC(O)C4)cc3)c3c(=O)[nH]ncc3n2)CC1 (stereo not shown) [Example 282, 2-(1-(4-((4-(3-hydroxypiperidin-1-yl)phenyl)amino)-5-oxo-5,6-dihydropyrimido[4,5-d]pyridazin-2-yl)piperidin-4-yl)acetonitrile] | < 10 nM | < 50 nM
N#CCC1CCN(c2nc(Nc3ccc(N4CCCC(CCO)C4)cc3)c3c(=O)[nH]ncc3n2)CC1 (stereo not shown) [Example 286, 2-(1-(4-((4-(3-(2-hydroxyethyl)piperidin-1-yl)phenyl)amino)-5-oxo-5,6-dihydropyrimido[4,5-d]pyridazin-2-yl)piperidin-4-yl)acetonitrile] | < 50 nM | < 50 nM
COC1CCN(c2ccc(Nc3nc(N4CCCCCC4)nc4cn[nH]c(=O)c34)cc2)CC1 [Example 288, 2-(azepan-1-yl)-4-((4-(4-methoxypiperidin-1-yl)phenyl)amino) pyrimido[4,5-d]pyridazin-5(6H)-one] | < 50 nM | < 50 nM
O=c1[nH]ncc2nc(N3CCCCCC3)nc(Nc3ccc(N4CCC(F)CC4)cc3)c12 [Example 289, 2-(azepan-1-yl)-4-((4-(4-fluoropiperidin-1-yl)phenyl)amino)pyrimido[4,5-d]pyridazin-5(6H)-one] | < 10 nM | < 50 nM
N#CCC1CCN(c2nc(Nc3ccc(OC4CCN(CCO)CC4)cc3)c3c(=O)[nH]ncc3n2)CC1 [Example 291, 2-(1-(4-((4-((1-(2-hydroxyethyl)piperidin-4-yl)oxy)phenyl)amino)-5-oxo-5,6-dihydropyrimido[4,5-d]pyridazin-2-yl)piperidin-4-yl)acetonitrile] | < 50 nM | < 50 nM
N#CCC1CCN(c2nc(Nc3ccc(N4CCC(CCF)CC4)cc3)c3c(=O)[nH]ncc3n2)CC1 [Example 299, 2-(1-(4-((4-(4-(2-fluoroethyl)piperidin-1-yl)phenyl)amino)-5-oxo-5,6-dihydropyrimido[4,5-d]pyridazin-2-yl)piperidin-4-yl)acetonitrile] | < 50 nM | < 50 nM
N#CCC1CCN(c2nc(Nc3ccc(CCCO)cc3)c3c(=O)[nH]ncc3n2)CC1 [Example 309, 2-(1-(4-((4-(3-hydroxypropyl)phenyl)amino)-5-oxo-5,6-dihydropyrimido[4,5-d]pyridazin-2-yl)piperidin-4-yl) acetonitrile] | < 50 nM | < 50 nM
N#CCC1CCN(c2nc(Nc3ccc(CCO)cc3)c3c(=O)[nH]ncc3n2)CC1 [Example 323, 2-(1-(4-((4-(2-hydroxyethyl)phenyl)amino)-5-oxo-5,6-dihydropyrimido[4,5-d]pyridazin-2-yl)piperidin-4-yl) acetonitrile] | < 50 nM | < 50 nM

Second part, the compound after the results:

IC50 (JAK2) | IC50 [1] | Compound
< 10 nM | < 50 nM | COCCN1CCN(c2ccc(Nc3nc(N4CCCCCC4)nc4cn[nH]c(=O)c34)cc2)CC1 [Example 255, 2-(azepan-1-yl)-4-((4-(4-(2-methoxyethyl)piperazin-1-yl)phenyl)amino) pyrimido[4,5-d]pyridazin-5(6H)-one]
< 50 nM | < 50 nM | O=c1[nH]ncc2nc(N3CCCCCC3)nc(Nc3ccc(N4CCN(CCCO)CC4)cc3)c12 [Example 260, 2-(azepan-1-yl)-4-((4-(4-(3-hydroxypropyl)piperazin-1-yl)phenyl)amino)pyrimido[4,5-d]pyridazin-5(6H)-one]
< 10 nM | < 10 nM | O=c1[nH]ncc2nc(N3CCCCCC3)nc(Nc3ccc(N4CCCN(CCO)CC4)cc3)c12 [Example 263, 2-(azepan-1-yl)-4-((4-(4-(2-hydroxyethyl)-1,4-diazepan-1-yl)phenyl)amino) pyrimido[4,5-d]pyridazin-5(6H)-one]
< 10 nM | < 50 nM | O=c1[nH]ncc2nc(N3CCCCCC3)nc(Nc3ccc(N4CCCC(CCO)C4)cc3)c12 (stereo not shown) [Example 272, 2-(azepan-1-yl)-4-((4-(3-(2-hydroxyethyl)piperidin-1-yl)phenyl)amino) pyrimido[4,5-d]pyridazin-5(6H)-one]
< 10 nM | < 50 nM | O=c1[nH]ncc2nc(N3CCCCCC3)nc(Nc3ccc(N4CCCC(O)C4)cc3)c12 (stereo not shown) [Example 281, 2-(azepan-1-yl)-4-((4-(3-hydroxypiperidin-1-yl)phenyl)amino) pyrimido[4,5-d]pyridazin-5(6H)-one]
< 50 nM | < 50 nM | O=c1[nH]ncc2nc(N3CCCCCC3)nc(Nc3ccc(N4CCCC(CO)C4)cc3)c12 (stereo not shown) [Example 285, 2-(azepan-1-yl)-4-((4-(3-(hydroxymethyl)piperidin-1-yl)phenyl)amino) pyrimido[4,5-d]pyridazin-5(6H)-one]
< 50 nM | < 100 nM | N#CCC1CCN(c2nc(Nc3ccc(OCCO)cc3)c3c(=O)[nH]ncc3n2)CC1 [Example 293, 2-(1-(4-((4-(2-hydroxyethoxy)phenyl)amino)-5-oxo-5,6-dihydropyrimido[4,5-d]pyridazin-2-yl)piperidin-4-yl) acetonitrile]
< 50 nM | < 50 nM | O=c1[nH]ncc2nc(N3CCCCCC3)nc(Nc3ccc(OCCO)cc3)c12 [Example 294, 2-(azepan-1-yl)-4-((4-(2-hydroxyethoxy)phenyl)amino)pyrimido[4,5-d]pyridazin-5(6H)-one]
< 50 nM | < 50 nM | N#CCC1CCN(c2nc(Nc3ccc(OCCCO)cc3)c3c(=O)[nH]ncc3n2)CC1 [Example 295, 2-(1-(4-((4-(3-hydroxypropoxy)phenyl)amino)-5-oxo-5,6-dihydropyrimido[4,5-d]pyridazin-2-yl)piperidin-4-yl) acetonitrile]
< 10 nM | < 50 nM | O=c1[nH]ncc2nc(N3CCCCCC3)nc(Nc3ccc(CCCO)cc3)c12 [Example 308, 2-(azepan-1-yl)-4-((4-(3-hydroxypropyl)phenyl)amino)pyrimido[4,5-d]pyridazin-5(6H)-one]
< 10 nM | < 50 nM | CC(C)(CO)Oc1ccc(Nc2nc(N3CCCCCC3)nc3cn[nH]c(=O)c23)cc1 [Example 314, 2-(azepan-1-yl)-4-((4-((1-hydroxy-2-methylpropan-2-yl)oxy)phenyl)amino) pyrimido[4,5-d]pyridazin-5(6H)-one]
< 10 nM | < 50 nM | O=c1[nH]ncc2nc(N3CCCCCC3)nc(Nc3ccc(CCO)cc3)c12 [Example 322, 2-(azepan-1-yl)-4-((4-(2-hydroxyethyl)phenyl)amino)pyrimido[4,5-d]pyridazin-5(6H)-one]
< 50 nM | < 50 nM | COCCOc1ccc(Nc2nc(N3CCCCCC3)nc3cn[nH]c(=O)c23)cc1 [Example 324, 2-(azepan-1-yl)-4-((4-(2-methoxyethoxy)phenyl)amino)pyrimido[4,5-d]pyridazin-5(6H)-one]
> 100 nM | < 50 nM | O=c1[nH]ncc2nc(N3CCCCCC3)nc(Nc3ccc(CO)cc3)c12 [Example 331, 2-(azepan-1-yl)-4-((4-(hydroxymethyl)phenyl)amino)pyrimido[4,5-d]pyridazin-5(6H)-one]
